The source of these data is ChEMBL document CHEMBL5365497, “Developing Novel Coumarin-Containing Azoles Antifungal Agents by the Scaffold Merging Strategy for Treating Azole-Resistant Candidiasis” (J Med Chem, 2023).

Values after ≈ are worked out from the molar mass of the structure shown.

The term MIC denotes the lowest concentration that inhibits growth of the organism.

Holding throughout (assay type): functional
In one assay the test system is Pichia kudriavzevii. Description: Antifungal activity against Pichia kudriavzevii assessed as fungal growth inhibition by CLSI based microdilution method. In general terms: Dilution methods test growth across graded concentrations, often in twofold steps.
In a further assay the test system is Cryptococcus neoformans. Description: Antifungal activity against Cryptococcus neoformans assessed as fungal growth inhibition by CLSI based microdilution method.
Another assay concerns Candida tropicalis. The experiment in a line: Antifungal activity against Candida tropicalis assessed as fungal growth inhibition by CLSI based microdilution method.
Assay [1] relates to Candida albicans. The experiment in a line: Antifungal activity against Candida albicans SC5314 assessed as fungal growth inhibition by CLSI based microdilution method.
Another assay concerns Candida parapsilosis. The experiment in a line: Antifungal activity against Candida parapsilosis assessed as fungal growth inhibition by CLSI based microdilution method. The following applies: Lodderomyces parapsilosis.
The test system of assay [2] is Candida albicans. Description: Antifungal activity against Candida albicans CPCC400616 assessed as fungal growth inhibition by CLSI based microdilution method.
Another assay deals with Nakaseomyces glabratus. Description: Antifungal activity against Candida glabrata assessed as fungal growth inhibition by CLSI based microdilution method.
Assay [3] has as its system Candida albicans. Description: Antifungal activity against fluconazole-resistant Candida albicans 904 assessed as fungal growth inhibition by CLSI based microdilution method.
The test system of assay [4] is Candida albicans. Description: Antifungal activity against fluconazole-resistant Candida albicans 632 assessed as fungal growth inhibition by CLSI based microdilution method.
The test system of assay [5] is Candida albicans. The experiment in a line: Antifungal activity against fluconazole-resistant Candida albicans CaR assessed as fungal growth inhibition by CLSI based microdilution method.
For assay [6], the system named is Candida albicans. The experiment in a line: Antifungal activity against fluconazole-resistant Candida albicans 901 assessed as fungal growth inhibition by CLSI based microdilution method.
Assay [7] concerns Candida albicans. The experiment in a line: Antifungal activity against fluconazole-resistant Candida albicans 17# assessed as fungal growth inhibition by CLSI based microdilution method.

For `O=c1oc2ccccc2cc1COC(Cn1ccnn1)c1ccc(F)cc1F` (centres undefined), the MIC is 64 µg/mL (≈ 167 µM) in the assay on Pichia kudriavzevii; 64 µg/mL (≈ 167 µM) in the assay with Cryptococcus neoformans; greater than 128 µg/mL in the assay on Candida tropicalis; 128 µg/mL (≈ 334 µM) in the assay on Candida albicans [1]; greater than 128 µg/mL with Candida parapsilosis; greater than 128 µg/mL in the assay with Candida albicans [2]. In addition, the MIC with Nakaseomyces glabratus was greater than 128 µg/mL.
Turning to `O=c1oc2ccc(F)cc2cc1COC(Cn1ccnc1)c1ccc(F)cc1F` (centres undefined), the MIC in the assay with Pichia kudriavzevii came out at 4 µg/mL (≈ 9.99 µM); with Cryptococcus neoformans, 0.5 µg/mL (≈ 1.25 µM); in the assay with Candida tropicalis, 8 µg/mL (≈ 20 µM); in the assay with Candida albicans [1], 1 µg/mL (≈ 2.5 µM); with Candida parapsilosis, 0.5 µg/mL (≈ 1.25 µM); in the assay on Candida albicans [2], 1 µg/mL (≈ 2.5 µM). Also, the MIC in the assay on Nakaseomyces glabratus stood at 2 µg/mL (≈ 5 µM).
`O=c1oc2ccc(Cl)cc2cc1COC(Cn1ccnc1)c1ccc(F)cc1F` (centres undefined): the MIC in the assay on Pichia kudriavzevii was found to be 128 µg/mL (≈ 307 µM); with Cryptococcus neoformans, 16 µg/mL (≈ 38.4 µM); in the assay with Candida tropicalis it was 128 µg/mL (≈ 307 µM); in the assay on Candida albicans [1], 0.25 µg/mL (≈ 0.6 µM); in the assay with Candida parapsilosis it was 16 µg/mL (≈ 38.4 µM); in the assay on Candida albicans [2], 32 µg/mL (≈ 76.8 µM). In addition, the MIC in the assay with Nakaseomyces glabratus was 128 µg/mL (≈ 307 µM).
Consider `O=c1oc2ccccc2cc1COC(Cn1cncn1)c1ccc(Cl)cc1Cl` (centres undefined), for which the MIC was 32 µg/mL (≈ 76.9 µM) in the assay with Pichia kudriavzevii; 16 µg/mL (≈ 38.4 µM) in the assay on Cryptococcus neoformans; 16 µg/mL (≈ 38.4 µM) in the assay with Candida tropicalis; 0.25 µg/mL (≈ 0.601 µM) with Candida albicans [1]; 4 µg/mL (≈ 9.61 µM) in the assay with Candida parapsilosis; 4 µg/mL (≈ 9.61 µM) in the assay on Candida albicans [2]. Moreover, the MIC in the assay with Nakaseomyces glabratus is 8 µg/mL (≈ 19.2 µM).
`O=c1oc2ccc([N+](=O)[O-])cc2cc1COC(Cn1ccnc1)c1ccc(Cl)cc1Cl` (centres undefined): the MIC was greater than 128 µg/mL in the assay with Pichia kudriavzevii; 128 µg/mL (≈ 278 µM) with Cryptococcus neoformans; greater than 128 µg/mL in the assay on Candida tropicalis; 64 µg/mL (≈ 139 µM) in the assay with Candida albicans [1]; greater than 128 µg/mL with Candida parapsilosis; greater than 128 µg/mL in the assay with Candida albicans [2]. The MIC in the assay with Nakaseomyces glabratus came to 128 µg/mL (≈ 278 µM).
Turning to `O=c1ccc2ccc(COC(Cn3cnnn3)c3ccc(Cl)cc3Cl)cc2o1` (centres undefined), the MIC in the assay with Pichia kudriavzevii was greater than 128 µg/mL; in the assay on Cryptococcus neoformans, 32 µg/mL (≈ 76.7 µM); with Candida tropicalis, 128 µg/mL (≈ 307 µM); in the assay on Candida albicans [1], greater than 128 µg/mL; in the assay with Candida parapsilosis, 64 µg/mL (≈ 153 µM); in the assay on Candida albicans [2] it was greater than 128 µg/mL. Further, the MIC in the assay on Nakaseomyces glabratus amounted to 64 µg/mL (≈ 153 µM).
As to `O=c1oc2ccccc2cc1COC(Cn1ccnn1)c1ccc(Cl)cc1Cl` (centres undefined), the MIC in the assay with Pichia kudriavzevii was 128 µg/mL (≈ 307 µM); in the assay with Cryptococcus neoformans, 32 µg/mL (≈ 76.9 µM); with Candida tropicalis, greater than 128 µg/mL; in the assay on Candida albicans [1], 128 µg/mL (≈ 307 µM); in the assay on Candida parapsilosis it was greater than 128 µg/mL; with Candida albicans [2] it was 128 µg/mL (≈ 307 µM). In addition, the MIC with Nakaseomyces glabratus is greater than 128 µg/mL.
For the compound `O=c1ccc2cc(COC(Cn3ccnn3)c3ccc(F)cc3F)ccc2o1` (centres undefined), the MIC with Pichia kudriavzevii is greater than 128 µg/mL; with Cryptococcus neoformans, greater than 128 µg/mL; in the assay with Candida tropicalis it was greater than 128 µg/mL; with Candida albicans [1], greater than 128 µg/mL; in the assay on Candida parapsilosis it was 128 µg/mL (≈ 334 µM); in the assay with Candida albicans [2] it was greater than 128 µg/mL. Besides, the MIC in the assay on Nakaseomyces glabratus is greater than 128 µg/mL.
With `O=c1oc2c(Cl)cc(Cl)cc2cc1COC(Cn1ccnc1)c1ccc(Cl)cc1Cl` (centres undefined), the MIC in the assay with Pichia kudriavzevii was greater than 128 µg/mL; with Cryptococcus neoformans it was 16 µg/mL (≈ 33 µM); with Candida tropicalis, greater than 128 µg/mL; in the assay on Candida albicans [1] it was 128 µg/mL (≈ 264 µM); in the assay on Candida parapsilosis it was greater than 128 µg/mL; with Candida albicans [2] it was greater than 128 µg/mL. For the same compound, the MIC with Nakaseomyces glabratus was greater than 128 µg/mL.
With `O=c1oc2ccc(F)cc2cc1COC(Cn1ccnc1)c1ccc(Cl)cc1Cl` (centres undefined), the MIC was determined as 2 µg/mL (≈ 4.62 µM) in the assay with Pichia kudriavzevii; 0.5 µg/mL (≈ 1.15 µM) in the assay on Cryptococcus neoformans; 64 µg/mL (≈ 148 µM) with Candida tropicalis; 0.25 µg/mL (≈ 0.577 µM) in the assay with Candida albicans [1]; 0.5 µg/mL (≈ 1.15 µM) in the assay on Candida parapsilosis; 0.5 µg/mL (≈ 1.15 µM) in the assay on Candida albicans [2]. The MIC in the assay with Nakaseomyces glabratus was found to be 2 µg/mL (≈ 4.62 µM).
Consider `O=c1ccc2cc(COC(Cn3cnnn3)c3ccc(F)cc3F)ccc2o1` (centres undefined), for which the minimal inhibitory concentration (MIC) with Pichia kudriavzevii is 128 µg/mL (≈ 333 µM); in the assay with Cryptococcus neoformans, 64 µg/mL (≈ 167 µM); in the assay with Candida tropicalis it was 0.5 µg/mL (≈ 1.3 µM); with Candida albicans [1] it was 2 µg/mL (≈ 5.2 µM); in the assay on Candida parapsilosis, 16 µg/mL (≈ 41.6 µM); with Candida albicans [2] it was 1 µg/mL (≈ 2.6 µM). Besides, the MIC in the assay with Nakaseomyces glabratus turned out to be 16 µg/mL (≈ 41.6 µM).
`OB1OCc2cc(F)ccc21` [TAVABOROLE]: the MIC with Candida albicans [3] was 16 µg/mL (≈ 105 µM); in the assay on Candida albicans [4] it was 16 µg/mL (≈ 105 µM); with Candida albicans [5] it was 16 µg/mL (≈ 105 µM); in the assay on Candida albicans [6], 32 µg/mL (≈ 211 µM); in the assay with Candida albicans [7] it was 32 µg/mL (≈ 211 µM).
Regarding `C[C@@H](c1ncncc1F)[C@](O)(Cn1cncn1)c1ccc(F)cc1F` [VORICONAZOLE], the minimum inhibitory concentration (MIC) is greater than 128 µg/mL in the assay on Candida albicans [3]; 64 µg/mL (≈ 183 µM) in the assay on Candida albicans [4]; greater than 128 µg/mL in the assay with Candida albicans [5]; greater than 128 µg/mL in the assay with Candida albicans [6]; 128 µg/mL (≈ 366 µM) in the assay on Candida albicans [7].
Turning to `O=c1ccc2ccc(COC(Cn3cnnn3)c3ccc(F)cc3F)cc2o1` (centres undefined), the MIC in the assay with Pichia kudriavzevii is 32 µg/mL (≈ 83.3 µM); in the assay with Cryptococcus neoformans, 8 µg/mL (≈ 20.8 µM); in the assay on Candida tropicalis it was 64 µg/mL (≈ 167 µM); with Candida albicans [1], greater than 128 µg/mL; with Candida parapsilosis, 128 µg/mL (≈ 333 µM); in the assay with Candida albicans [2], greater than 128 µg/mL. Also, the MIC in the assay with Nakaseomyces glabratus turned out to be 64 µg/mL (≈ 167 µM).
